Experimental data from patent US9133180B2, “Aurora and FLT3 kinases modulators” (SAREUM LIMITED, priority 2012, dated 2015).

How the values were obtained:
FLT3 kinase = FLT3 kinase (Homo sapiens (Human), UniProt P36888); experiment: FLT3 kinase 33P-ATP filter assay (Reaction Biology Corp.); type: biochemical
Description: (§1) The ability of the compounds of the invention to inhibit FLT3 kinase and Aurora A and Aurora B kinases was determined using the assays described below.
(§2) Kinase assays were performed at Reaction Biology Corp., Malvern, Pa., USA, using the following general procedure:
(§3) 1) Prepare indicated substrate in freshly prepared Base Reaction Buffer (20 mM Hepes pH 7.5, 10 mM MgCl2, 1 mM EGTA, 0.02% Brij35, 0.02 mg/ml BSA, 0.1 mM Na3VO4, 2 mM DTT, 1% DMSO).
(§4) 2) Deliver cofactors (1.5 mM CaCl2, 16 ug/mL Calmodulin, 2 mM MnCl2) to the substrate solution above.
(§5) 3) Deliver indicated kinase into the substrate solution and gently mix
(§6) 4) Deliver varying concentrations of test compound in DMSO into the kinase reaction mixture.
(§7) 5) Deliver ^33P-ATP (specific activity 0.01 µCi/µL final) into the reaction mixture to initiate the reaction.
(§8) 6) Incubate kinase reaction for 120 min at room temperature.
(§9) 7) Reactions are spotted onto P81 ion exchange filter paper (Whatman #3698-915)
(§10) 8) Unbound phosphate is removed by washing filters extensively in 0.75% phosphoric acid.
(§11) 9) ^33P signal was determined using Typhoon phosphorimagers (GE Healthcare).
(§12) Substrates: Kemptide=[H-LRRASLG] Abltide=[[…]]

Aurora B kinase = Aurora B kinase (Homo sapiens (Human), UniProt Q96GD4); experiment: Aurora B kinase 33P-ATP filter assay (Reaction Biology Corp.); type: biochemical
Description: as §1, §2, §3, §4, §5, §6, §7, §8, §9, §10, §11, §12

Aurora A kinase = Aurora A kinase (Homo sapiens (Human), UniProt O14965); experiment: Aurora A kinase 33P-ATP filter assay (Reaction Biology Corp.); type: biochemical
Description: as §1, §2, §3, §4, §5, §6, §7, §8, §9, §10, §11, §12

HCT-116 [1] = experiment: Anti-proliferative activity, Alamar Blue assay; type: cell-based; details: Homo sapiens, 96 h exposure, read-out: HCT116 96 Hrs IC50
Description: (§13) The anti-proliferative activities of compounds of the invention are determined by measuring the ability of the compounds to inhibit the growth of the colorectal cancer derived cell-line HCT-116. Inhibition of cell growth is measured using the Alamar Blue assay (Nociari et al., Journal of Immunological Methods (1998) 213, 157-167). The method is based on the ability of viable cells to reduce resazurin to its fluorescent product resorufin. For each proliferation assay cells are plated onto 96 well plates and allowed to recover for 16 hours prior to the addition of inhibitor compounds for a further 96 hours. At the end of the incubation period 10% (v/v) Alamar Blue is added and incubated for a further 6 hours prior to determination of fluorescent product at Excitation 535 nm and Emission 590 nm. All cell lines are obtained from ECACC (European Collection of cell Cultures).
(§14) The activities of the compounds of the invention against the human colorectal cancer cell line HCT-116 are shown the in the table below. The column headed HCT-116 96 Hrs refers to the concentration of compound required to reduce the proliferation of HCT-116 cells by 50% following a 96 h period of exposure. The column headed [Polyploidy] refers to the lowest concentration of compound required to produce a distinct polyploid phenotype, believed to be due to Aurora B inhibition.

HCT-116 [2] = experiment: Polyploid phenotype in HCT-116 cells; type: cell-based, human
Description: as §13, §14

[3] = Caco-2 permeability assay; type: in vitro ADME; details: human; for Papp A→B: A2B, read-out: Caco2 A2B Papp; for Papp B→A: B2A, read-out: Caco2 B2A Papp; for efflux ratio: B2A:A2B, read-out: Caco2 Efflux ratio
Description: The ability of a compound to be taken up and retained by a cell can be measured by carrying out permeability studies using Caco-2 cells.
Compounds of the present invention were therefore tested in a standard Caco-2 assay and the rate of flow of the compounds into and out of the cells was determined.
In the table, the column headed “Caco-2 A2B” indicates the rate at which compound flows into the cells and the column Caco-2 B2A indicates the rate at which compound flows out of the cells. The “Efflux Ratio” is the ratio of Caco-2 B2A:Caco-2 A2B.

MV4-11 xenograft tumors = experiment: MV4-11 xenograft study in nude mice; type: in vivo, Balb/c nude mouse; details: 100 mg/kg IP once daily, 4 cycles
Source text: The in vivo antitumour activity of compounds of the invention was investigated by examining the effect of the compounds of Examples 2 and 7 on tumour growth in a nude mouse xenograft model of the MV4-11 cancer cell line.
MV4-11 cell line (ATCC, USA); RPMI 1640 medium (Invitrogen, USA); FBS (Invitrogen, Australia); Balb/c nude mouse (Slac Laboratory Animal Co., Ltd., Shanghai, China): female, 18-22 g; HP-6-CD (Sigma, USA).
A total of 52 female nude mice were used. The mice were allowed 3 days of acclimatization period before starting the experiment. Mice were implanted subcutaneously (s.c.) with 200 μl of 1×10^7MV4-11 tumour cells in 50% Matrigel in the right flank at the beginning of the study. When tumours reached an average volume of 100-150 mm^3, 32 mice out of the 52 were selected based on tumour volume, and randomly assigned to 4 groups prior to dosing. Each treatment group consisted of 8 tumour-bearing animals (n=8/group).
A comparison group of mice were treated with cytarabine once daily for 5 days on, 2 days off, for 4 cycles.
Mice were weighed at each dosing and the tumour sizes recorded twice each week. Mice were observed closely for any overt signs of adverse, treatment-related side effects and these were recorded if and when they were observed.
The tumour size was measured twice weekly in two dimensions using calipers, and the volume was expressed in mm^3 using the formula: V=0.5 a×b^2 where a and b were the long and short diameters of the tumour, respectively.
Mice were euthanized by CO2 exposure after 4-cycle dose. The tumour volume, weight of dissected tumours, and the mouse body weight were measured and recorded. The tumour inhibitory rate (IR) was calculated by the formula IR=(WV−WT)/WV×100%.
The differences in tumour size between the groups were analyzed for significance using the unpaired two-tailed Student's t-test. P<0.05 was considered to be statistically significant.

[4] = tested on: treatment-refractory primary Acute Myelogenous Leukemia (AML) cells; details: cells from patients; cited from earlier work
[5] = tested on: SW620, HCT-116, Colo205, A549, Calu-6 or HL-60 tumour xenografts; details: HL-60 xenograft; cited from earlier work

Aurora B kinase, sequence (Q96GD4 whole entry): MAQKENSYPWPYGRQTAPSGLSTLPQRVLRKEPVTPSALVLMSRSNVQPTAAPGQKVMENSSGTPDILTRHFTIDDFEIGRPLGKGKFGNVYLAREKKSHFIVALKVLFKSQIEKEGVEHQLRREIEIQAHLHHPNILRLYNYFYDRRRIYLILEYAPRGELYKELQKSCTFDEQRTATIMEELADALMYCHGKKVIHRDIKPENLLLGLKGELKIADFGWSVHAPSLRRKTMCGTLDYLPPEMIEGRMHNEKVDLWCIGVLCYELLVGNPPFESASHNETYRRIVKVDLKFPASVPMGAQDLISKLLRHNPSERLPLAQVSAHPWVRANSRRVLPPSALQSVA
Aurora A kinase, sequence (O14965 whole entry): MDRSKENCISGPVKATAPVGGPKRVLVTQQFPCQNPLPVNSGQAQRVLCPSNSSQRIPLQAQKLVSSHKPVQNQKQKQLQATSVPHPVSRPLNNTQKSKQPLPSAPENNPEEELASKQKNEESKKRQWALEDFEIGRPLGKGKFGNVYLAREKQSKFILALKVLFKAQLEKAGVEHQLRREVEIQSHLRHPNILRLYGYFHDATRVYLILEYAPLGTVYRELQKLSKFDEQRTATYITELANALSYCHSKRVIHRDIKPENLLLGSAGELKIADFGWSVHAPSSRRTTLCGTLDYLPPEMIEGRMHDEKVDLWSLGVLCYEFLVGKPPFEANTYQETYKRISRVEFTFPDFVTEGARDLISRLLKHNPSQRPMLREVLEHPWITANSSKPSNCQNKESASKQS
FLT3 kinase, sequence (P36888 27-993): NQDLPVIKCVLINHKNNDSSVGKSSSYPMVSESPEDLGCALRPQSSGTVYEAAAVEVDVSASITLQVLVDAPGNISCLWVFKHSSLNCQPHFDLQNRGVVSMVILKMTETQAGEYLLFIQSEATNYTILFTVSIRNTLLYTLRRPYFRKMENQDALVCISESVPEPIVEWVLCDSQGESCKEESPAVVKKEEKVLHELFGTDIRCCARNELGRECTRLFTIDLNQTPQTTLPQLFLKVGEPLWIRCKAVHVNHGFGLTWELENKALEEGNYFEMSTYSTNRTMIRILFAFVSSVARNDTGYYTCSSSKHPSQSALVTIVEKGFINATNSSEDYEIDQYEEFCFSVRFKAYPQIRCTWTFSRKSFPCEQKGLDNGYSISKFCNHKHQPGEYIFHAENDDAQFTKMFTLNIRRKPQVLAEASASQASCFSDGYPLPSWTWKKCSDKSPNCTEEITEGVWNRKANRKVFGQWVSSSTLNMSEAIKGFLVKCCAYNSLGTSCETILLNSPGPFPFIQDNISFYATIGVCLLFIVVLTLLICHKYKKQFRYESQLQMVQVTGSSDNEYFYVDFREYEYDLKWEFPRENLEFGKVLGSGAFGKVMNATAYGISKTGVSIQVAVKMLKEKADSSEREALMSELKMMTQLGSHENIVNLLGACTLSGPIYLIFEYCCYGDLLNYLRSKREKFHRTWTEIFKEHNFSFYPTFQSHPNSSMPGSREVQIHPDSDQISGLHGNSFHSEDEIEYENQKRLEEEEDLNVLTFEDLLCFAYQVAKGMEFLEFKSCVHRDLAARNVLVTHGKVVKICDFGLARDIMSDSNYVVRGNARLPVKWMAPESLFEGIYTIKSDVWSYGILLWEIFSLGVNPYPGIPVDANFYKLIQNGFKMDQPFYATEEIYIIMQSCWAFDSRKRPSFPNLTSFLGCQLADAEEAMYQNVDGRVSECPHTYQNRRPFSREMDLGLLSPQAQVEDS

IC50 (FLT3 kinase) [nM]	IC50 (Aurora B kinase) [nM]	IC50 (Aurora A kinase) [nM]	IC50 (HCT-116 [1]) [nM]	Papp A→B [3] [×10⁻⁶ cm/s]	Papp B→A [3] [×10⁻⁶ cm/s]	efflux ratio [3]	Structure (SMILES)	[Polyploidy] lowest concentration producing a distinct polyploid phenotype (HCT-116 [2]) [µM]	effect on tumour growth (tumour volume) (MV4-11 xenograft tumors)	tumour inhibitory rate (IR) (MV4-11 xenograft tumors; 5 days on, 2 days off) [%]	killing of primary AML cells [4]	complete tumour regression (animals) [5]
1.37	19.6	88.4	160	0.514	2.08	4.04	Cc1cc(C)c2[nH]ccc2c1-c1nc(C(N)=O)c(-c2ccc(N3CCNC(C)(C)C3)cc2)o1 [Example 6, 2-(5,7-Dimethyl-1H-Indol-4-yl)-5-[4-(3,3-dimethyl-piperazin-1-yl)-phenyl]-oxazole-4-carboxylic acid amide]	0.1				
							Nc1ccn([C@@H]2O[C@H](CO)[C@@H](O)[C@@H]2O)c(=O)n1 [cytarabine, reference compound]		slowed down but did not completely block the tumour growth	66.72		
							Cc1cc(Nc2cc(N3CCN(C)CC3)nc(Sc3ccc(NC(=O)C4CC4)cc3)n2)n[nH]1 [VX-680]				potently killed	
			220	0.37	2.35		CCc1ccc(-c2nc(C(N)=O)c(-c3ccc(N4CCNC(C)(C)C4)cc3)o2)c2cc[nH]c12 [Example 10, 2-(7-Ethyl-1H-Indol-4-yl)-5-[4-(3,3-dimethyl-piperazin-1-yl)-phenyl]-oxazole-4-carboxylic acid amide]	0.3				
0.821	9.36	19.4	120	1.17	7.76	6.62	CC1(C)CN(c2ccc(-c3oc(-c4ccc(F)c5[nH]ccc45)nc3C(N)=O)cc2)CCN1 [Example 3, 2-(7-Fluoro-1H-Indol-4-yl)-5-[4-(3,3-dimethyl-piperazin-1-yl)-phenyl]-oxazole-4-carboxylic acid amide]	0.1				
							CCN(CCCOc1ccc2c(Nc3cc(CC(=O)Nc4cccc(F)c4)n[nH]3)ncnc2c1)CCOP(=O)(O)O [AZD1152]					8 of 11
0.89	8.78	20.5	87	1.36	11		COc1ccc(-c2nc(C(N)=O)c(-c3ccc(N4CCNC(C)(C)C4)cc3)o2)c2cc[nH]c12 [Example 5, 2-(7-Methoxy-1H-Indol-4-yl)-5-[4-(3,3-dimethyl-piperazin-1-yl)-phenyl]-oxazole-4-carboxylic acid amide]	0.1				
				0.519	3.59	6.91	CCc1ccc2[nH]ccc2c1-c1nc(C(N)=O)c(-c2ccc(N3CCNC(C)(C)C3)cc2)o1 [Example 9, 2-(5-Ethyl-1H-Indol-4-yl)-5-[4-(3,3-dimethyl-piperazin-1-yl)-phenyl]-oxazole-4-carboxylic acid amide]					
1.92	24.3	14.6	240	0.707	22.8	32.2	CC1(C)CN(c2ccc(-c3oc(-c4c(F)ccc5[nH]ccc45)nc3C(N)=O)cc2)CCN1 [Example 1, 2-(5-Fluoro-1H-Indol-4-yl)-5-[4-(3,3-dimethyl-piperazin-1-yl)-phenyl]-oxazole-4-carboxylic acid amide]	0.3				
2.8	14	16		0.036	1.21	33.5	CC1(C)CN(c2ccc(-c3oc(-c4ccc(C(F)(F)F)c5[nH]ccc45)nc3C(N)=O)cc2)CCN1 [Example 12, 2-(7-Trifluoromethyl-1H-Indol-4-yl)-5-[4-(3,3-dimethyl-piperazin-1-yl)-phenyl]-oxazole-4-carboxylic acid amide]					
	15.2	46.2	170	2.47	12.6		CC1(C)CN(c2ccc(-c3oc(-c4cccc5[nH]ccc45)nc3C(N)=O)cc2)CCN1 [Example 11, 2-(1H-Indol-4-yl)-5-[4-(3,3-dimethyl-piperazin-1-yl)-phenyl]-oxazole-4-carboxylic acid amide]	0.1				
0.97	13.9	34	260	0.64	2.76	4.32	CC1(C)CN(c2ccc(-c3oc(-c4ccc(Cl)c5[nH]ccc45)nc3C(N)=O)cc2)CCN1 [Example 4, 2-(7-Chloro-1H-Indol-4-yl)-5-[4-(3,3-dimethyl-piperazin-1-yl)-phenyl]-oxazole-4-carboxylic acid amide]	0.3				
0.55	14.2	271		2.07	9.19	4.45	Cc1c[nH]c2cccc(-c3nc(C(N)=O)c(-c4ccc(N5CCNC(C)(C)C5)cc4)o3)c12 [Example 8, 2-(3-Methyl-1H-Indol-4-yl)-5-[4-(3,3-dimethyl-piperazin-1-yl)-phenyl]-oxazole-4-carboxylic acid amide]					
1.6	13	75	680	1.13	58.3	51.7	NC(=O)c1nc(-c2cccc3[nH]ccc23)oc1-c1ccc(N2CCNCC2)cc1 [Example M-12, 2-(1H-Indol-4-yl)-5-(4-piperazin-1-yl-phenyl)-oxazole-4-carboxylic acid amide, reference compound]	1.0				
